Measurements as given in PMC10488223 (International Journal of Molecular Sciences, 2023).

How the values were obtained:
[1] = target: T1, Acetylcholinesterase from Electrophorus electricus (AChE) (Electrophorus electricus, UniProt O42275); experiment: biochemical; details: for mechanism of inhibition on AChE: from Km and Vmax at different inhibitor concentrations; for IC50: mean ± SD, three determinations, pH 7.4, 500 μM acetylthiocholine
T1 construct: purchased Sigma-Aldrich (Milano, Italy)
Method: (§1) AChE or BuChE activity was assayed by the Ellman method as previously reported, using acetylthiocholine or butirrylthiocholine as a substrate, respectively. […] The reaction was started by the addition of 100 mU/mL AChE or BuChE, and the initial rate of the reaction was derived from the linear portion of the kinetics. […] Linear curve fits were obtained with the least-squares method, and the significance of the correlation was estimated from the squared correlation coefficient r^2.
(§2) The determination of the kinetic parameters Km and Vmax for both cholinesterase and monoamine oxidase activities were determined by measuring the initial velocity (v0) of substrate consumption/product formed at different substrate concentrations, as reported above. […] The Ki values obtained at different inhibitor concentrations were averaged to obtain a unique value of apparent Ki for each compound. Kinetic parameters and their corresponding standard errors were evaluated using a simple weighting method (Student’s t test).

[2] = target: T2, butirrylcholinesterase from equine serum (BuChE) (Equus caballus, UniProt P81908); experiment: biochemical; details: for inhibition type determined for BuChE: from Km and Vmax at different inhibitor concentrations; for IC50: mean ± SD, three determinations, pH 7.4, 500 μM butirrylthiocholine
T2 construct: butirrylcholinesterase from equine serum (BuChE); purchased Sigma-Aldrich (Milano, Italy); host or cells: equine serum
T2 sequence (P81908 whole entry): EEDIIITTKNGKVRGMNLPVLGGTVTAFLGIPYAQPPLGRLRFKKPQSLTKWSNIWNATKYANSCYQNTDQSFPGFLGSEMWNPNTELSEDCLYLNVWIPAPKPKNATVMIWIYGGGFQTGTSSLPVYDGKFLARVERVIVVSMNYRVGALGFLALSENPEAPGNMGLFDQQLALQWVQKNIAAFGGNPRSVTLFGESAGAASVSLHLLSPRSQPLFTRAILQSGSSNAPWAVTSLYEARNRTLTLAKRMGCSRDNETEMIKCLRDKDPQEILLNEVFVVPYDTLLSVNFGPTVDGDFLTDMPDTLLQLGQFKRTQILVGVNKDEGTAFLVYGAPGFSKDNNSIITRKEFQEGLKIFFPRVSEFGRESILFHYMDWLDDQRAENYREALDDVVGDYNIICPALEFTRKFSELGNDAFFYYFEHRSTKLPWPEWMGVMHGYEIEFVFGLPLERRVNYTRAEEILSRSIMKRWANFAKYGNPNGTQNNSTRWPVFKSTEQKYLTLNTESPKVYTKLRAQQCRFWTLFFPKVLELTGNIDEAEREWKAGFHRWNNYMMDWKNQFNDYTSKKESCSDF
Method: as §1, §2

mouse BACE-1 = mouse BACE-1 (Mus musculus, UniProt P56818); experiment: BACE-1 activity, fluorescent peptide substrate; type: biochemical; details: mean ± SD, four determinations; pH 4.5
Chain of mouse BACE-1 (P56818 46-501): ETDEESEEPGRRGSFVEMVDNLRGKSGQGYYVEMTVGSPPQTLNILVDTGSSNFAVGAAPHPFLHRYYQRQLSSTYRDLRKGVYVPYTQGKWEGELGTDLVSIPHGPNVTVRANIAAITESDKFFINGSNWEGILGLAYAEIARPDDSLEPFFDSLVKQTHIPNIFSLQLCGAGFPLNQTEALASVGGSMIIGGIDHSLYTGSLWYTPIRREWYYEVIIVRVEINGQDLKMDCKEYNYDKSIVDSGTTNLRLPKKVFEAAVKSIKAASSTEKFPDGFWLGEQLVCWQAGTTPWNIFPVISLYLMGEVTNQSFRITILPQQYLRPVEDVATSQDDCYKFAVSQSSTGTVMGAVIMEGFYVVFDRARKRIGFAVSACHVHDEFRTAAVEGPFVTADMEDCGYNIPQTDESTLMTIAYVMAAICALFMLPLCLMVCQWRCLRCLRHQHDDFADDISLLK
Method: BACE-1 activity was assayed as previously reported. Briefly, the reaction mixtures contained 2.1 ng/µL mouse BACE-1 in 50 mM ammonium acetate buffer, pH 4.5 supplemented with 1 mM triton X-100, and the appropriate amount of the hybrid derivatives. The mixture was incubated for 10 min at room temperature and started by adding 100 nM final concentration of the fluorescent peptide substrate. The increase in fluorescence was followed kinetically using excitation and emission wavelengths of 320 and 420 nm, respectively. The rate was derived from the linear portion of the kinetics, usually in the first 30 min of the reaction. The known BACE-1 inhibitors I and IV were used as positive controls.

Aβ 1–40 peptide = target: T3, Aβ 1–40 peptide (Homo sapiens, UniProt P05067); experiment: Aβ 1–40 self-aggregation inhibition assay (thioflavine T); type: biochemical; details: for IC50: 96 µM peptide, 37 °C, 24 h, mean ± SD, three determinations, read-out: IC50 on Aβ 1–40 fibril formation; for interference with fibril formation: up to 500 µM
T3 construct: Human β-amyloid peptide (1–40, cat. ab120479); purchased Abcam (Cambridge, UK) ab120479
T3 sequence (P05067 672-711): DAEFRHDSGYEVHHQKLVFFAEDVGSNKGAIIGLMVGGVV
Method: The percent inhibition due to the presence of the self-aggregation inhibition was calculated from the decrease in the fluorescence signal after the subtraction of the background fluorescence of a thioflavin T solution obtained in the same way.

SH-SY5Y cells [3] = experiment: Cell viability by MTT assay; type: cell-based, Human
Method: Human neuroblastoma SH-SY5Y cell line is the most widely used model to reproduce in vitro AD [37]. This cell line was acquired from the American Type Culture Collection (20099 Sesto San Giovanni, Milan, Italy) and maintained in culture in Dulbecco Modified’s Eagle’s Medium (DMEM) (supplemented with 100 U/mL penicillin, 100 µg/mL streptomycin, and 10% thermally inactivated bovine fetal serum). The cells were appropriately differentiated: a treatment with trans retinoid acid 10 µM for 5 days was chosen (Sigma Aldrich, 20151 Milan, Italy). […] At the end of the treatment, all appropriate tests were performed.
The use of 3-(4,5-dimethyl[…])-2,5-diphenyltetrazole (MTT) bromide allowed the determination of cell viability for the presence of active enzymes within mitochondria in living cells. Mitochondrial […] can reduce MTT by producing colorimetric modification whose spectrophotometric measurement provides valuable information on cell viability. An amount of 8 × 10^3 cells/well was plated onto 96-well plates. After 24 h, the culture medium was replaced with fresh phenol-free medium containing a solution of MTT (0.5 mg/mL), and after 4 h of incubation, 100 μL 10% SDS was added to each well to solubilize the formazan crystals. The optical density was measured at wavelengths of 540 and 690 nm using a spectrophotometric reader (X MARK Spectrophotometer Microplate Bio-Rad).
Aβ 25 μM peptide was incubated alone or in the presence the specific amount of each hybrid compound [28] for 24 h at room temperature prior to the cell treatment. […]

SH-SY5Y cells [4] = experiment: Intracellular ROS (H2DCF-DA, cytofluorimetric analysis); type: cell-based, Human; details: Aβ peptide
Method: Human neuroblastoma SH-SY5Y cell line is the most widely used model to reproduce in vitro AD [37]. This cell line was acquired from the American Type Culture Collection (20099 Sesto San Giovanni, Milan, Italy) and maintained in culture in Dulbecco Modified’s Eagle’s Medium (DMEM) (supplemented with 100 U/mL penicillin, 100 µg/mL streptomycin, and 10% thermally inactivated bovine fetal serum). The cells were appropriately differentiated: a treatment with trans retinoid acid 10 µM for 5 days was chosen (Sigma Aldrich, 20151 Milan, Italy). The medium was changed every 2–3 days, and when the cell line reached about 50% confluence, it was supplemented with the mixtures (MIX 0, 1, 2, 3, 4, 5, 6, 7) for a further 24 h. At the end of the treatment, all appropriate tests were performed.
The probe used to measure intracellular reactive oxygen species (ROS) is the molecule H2DCF-DA [39]. In fact, after its simple diffusion in cells, H2DCF-DA is cleaved by cellular esterases, which are responsible for the loss of an acetate group, transforming it into H2DCF. This compound can no longer leave the cell and binds the ROS to the highly fluorescent compound DCF. In this way, the quantification of DCF provides the content of cellular ROS. […] The fluorescence was evaluated by cytometric analysis (FACS Accury, Becton Dickinson, Milan, Italy). […]

SH-SY5Y cells [5] = experiment: Malondialdehyde (MDA), TBA reaction; type: cell-based, Human; details: Aβ peptide
Method: Lipid peroxidation was evaluated by measuring the reaction products of MDA with thiobarbituric acid (TBA), which forms a colorimetric product proportional to the MDA present. The cells were placed in 10 cm diameter cell culture and the following day were treated as indicated. At the end of the treatment, the cells were scraped, and then the suspension was subjected to freezing/thawing cycles. Subsequently, 36 mM TBA dissolved in glacial acetic acid was added and the mixture heated for 60 min to 100 °C. The reaction was interrupted by placing the vials on ice for 10 min, and a spectrophotometric reading was carried out at 532 nm.

[6] = system: cleaved caspase 3 in SH-SY5Y cells; experiment: Cleaved caspase-3 expression, Western blotting; type: cell-based, Human; details: mixtures 24 h; Aβ peptide vs untreated cells
Method: The total lysates of SH-SY5Y cells were obtained from 6-multiwells. Lysates were taken after the cells were exposed to a preheated lysis buffer (80 °C) containing 50 mM of Tris-HCl (pH 6.8), 2% of SDS, and a protease inhibitor mixture and immediately boiled for 2 min. The protein concentration was determined using a DCA protein assay. After the addition of 0.05% bromophenol blue, 10% glycerol, and 2% β-mercaptoethanol, the samples were boiled again and loaded onto 12% SDS-polyacrylamide gels. Following electrophoresis, the polypeptides were transferred to nitrocellulose filters and blocked with TTBS/milk (TBS 1%, Tween 20, and nonfat dry milk 5%), and then the antibodies were used to reveal the respective antigens. Primary antibodies were incubated overnight at 4 °C, and, after washing, the filters were exposed to horseradish peroxidase-conjugated secondary antibody for 1 h at room temperature. The blots were developed using the chemiluminescence procedure. Experiments of immunoblot analysis were carried out in two ways: (a) electrophoresis of proteins obtained from cell extracts, as described; and (b) electrophoresis of proteins obtained by the formation of mixtures in the test tubes (in the absence of cells). […]

T1 sequence (O42275 24-633): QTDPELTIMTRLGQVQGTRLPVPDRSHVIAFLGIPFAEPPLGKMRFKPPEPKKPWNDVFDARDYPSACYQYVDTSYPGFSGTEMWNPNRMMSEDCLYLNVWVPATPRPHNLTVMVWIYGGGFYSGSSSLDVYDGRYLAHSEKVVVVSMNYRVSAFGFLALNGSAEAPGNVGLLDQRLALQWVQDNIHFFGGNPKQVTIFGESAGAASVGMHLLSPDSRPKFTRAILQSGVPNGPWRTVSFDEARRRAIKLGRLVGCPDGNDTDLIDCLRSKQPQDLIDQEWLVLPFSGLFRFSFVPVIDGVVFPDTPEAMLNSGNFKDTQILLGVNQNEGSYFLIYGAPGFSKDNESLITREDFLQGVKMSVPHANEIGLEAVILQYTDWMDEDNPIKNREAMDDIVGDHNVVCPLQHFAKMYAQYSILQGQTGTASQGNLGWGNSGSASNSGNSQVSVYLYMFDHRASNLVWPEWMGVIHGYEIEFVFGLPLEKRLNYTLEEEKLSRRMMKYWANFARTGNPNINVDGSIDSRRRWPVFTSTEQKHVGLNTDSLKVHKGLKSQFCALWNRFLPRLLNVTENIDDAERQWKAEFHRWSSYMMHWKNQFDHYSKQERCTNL

| Molecule | mechanism of inhibition on AChE [1] | IC50 [1] [µM] | inhibition type determined for BuChE [2] | IC50 [2] [µM] | IC50 (mouse BACE-1) [µM] | IC50 (Aβ 1–40 peptide) [µM] | interference with fibril formation (Aβ 1–40 peptide) | reduction in cell vitality (SH-SY5Y cells [3]; 48 and 72 h, at the concentrations considered (0.1–100 μM)) | cell viability (SH-SY5Y cells [3]; Aβ peptide 0.1 μM) | cell viability (SH-SY5Y cells [3]; Aβ peptide 1, 10 and 100 μM) | ROS in the cells (SH-SY5Y cells [4]; after 48 and 72 h) | ROS in the cells (SH-SY5Y cells [4]; after 24 h) | malondialdehyde accumulation (SH-SY5Y cells [5]; 48 and 72 h) | malondialdehyde accumulation (SH-SY5Y cells [5]; after 24 h) | expression of the cleaved form of caspase 3 [6] |
| --- | --- | --- | --- | --- | --- | --- | --- | --- | --- | --- | --- | --- | --- | --- | --- |
| O=C(OCCc1ccc(O)c(O)c1)C1CCN(Cc2ccccc2)CC1 [HT1] | uncompetitive | 6.5 ± 0.8 | mixed | 20.3 ± 2.4 | 11.3 ± 1.2 | 375 ± 143 | – | – | – | – | – | – | – | – | – |
| CC(=O)Oc1ccc(CCOC(=O)C2CCN(Cc3ccccc3)CC2)cc1OC(C)=O [HT1a] | mixed | 4.3 ± 0.7 | mixed | 4.2 ± 0.4 | 16.9 ± 0.1 | 106 ± 11.1 | – | – | – | – | – | – | – | – | – |
| O=C(OCCc1cc(O)c(O)cc1[N+](=O)[O-])C1CCN(Cc2ccccc2)CC1 [HT2] | noncompetitive | 3.8 ± 0.3 | mixed | 31.8 ± 5.7 | 128 ± 42 | 418 ± 41.1 | – | – | – | – | – | – | – | – | – |
| COc1cc(CCOC(=O)C2CCN(Cc3ccccc3)CC2)ccc1O [HT3] | uncompetitive | 4 ± 0.4 | mixed | 7.2 ± 0.9 | 76.8 ± 3 | – | did not interfere with fibril formation | – | – | – | – | – | – | – | – |
| COc1cc(CCOC(=O)C2CCN(Cc3ccccc3)CC2)ccc1OC(C)=O [HT3a] | uncompetitive | 2.6 ± 0.2 | noncompetitive | 4.3 ± 0.9 | 19.7 ± 0.7 | – | did not interfere with fibril formation | – | – | – | – | – | – | – | – |
| O=C(OCCc1ccc(O)cc1)C1CCN(Cc2ccccc2)CC1 [HT4] | uncompetitive | 4.9 ± 0.5 | noncompetitive | 22.9 ± 7.1 | 52.2 ± 2.1 | – | did not interfere with fibril formation | – | – | – | – | – | – | – | – |
| CC(=O)Oc1ccc(CCOC(=O)C2CCN(Cc3ccccc3)CC2)cc1 [HT4a] | uncompetitive | 2.9 ± 0.2 | mixed | 4.1 ± 0.5 | 115 ± 5.1 | – | did not interfere with fibril formation | – | – | – | – | – | – | – | – |
| Aβ peptide: Human β-amyloid peptide (1–40, cat. ab120479) from Abcam | – | – | – | – | – | – | – | more than 20% | ineffective | gradual and increasing reduction in cell viability | no longer detectable | significant increase in ROS | increasing accumulation of malondialdehyde | absent | increased expression of caspase 3 |
